Data set [1] is described as follows: Blood pressure of the anaesthetized rat, intravenous infusion. It counts as in vivo. Conditions: doses from 30 μg/kg/min. An excerpt:
Most prostaglandins have strong effects on vascular smooth muscle, and will lower blood pressure in animals and humans. A compound can be tested for its effect on the blood pressure of the anaestheized rat. Prostaglandins A1 and E1 can be used for comparison. Male Wistar rats were anaesthetized and test drugs can be infused intravenously. Blood pressure and heart rate can be recorded from the femoral artery. […] It can be determined whether or not a test compound affects blood pressure at various dosages. As a control, solvent alone can be used.

Data set [2] has as its system HSF1. The settings on record: cited from earlier work.
Data set [3] deals with NF-κB. The settings on record: at the same concentration (125–500 μM); cited from earlier work.
The subject of data set [4] is NF-κB. Put plainly: Luciferase activity of NF-κB-LUC transfected HeLa cell pool after stimulation. The settings on record: resistant HeLa cell pool, quadruplicate samples; control 1369±149. It counts as cell-based, human. An excerpt:
(§1) The fragment Kpn I-BamH I from the pGL3 basic vector containing the luciferase gene (PROMEGA) was inserted in the pcDNA3 vector (INVITROGEN) digested with Bgl II-KpnI. (This digestion removes the CMV-promoter from pcDNA3.) The resulting new vector was digested with Kpn I-Hind III and a promoter containing a ‘5×NF-κB binding sites-TATA box’ sequence was inserted upstream of the luciferase gene. This vector has been named STM.
(§2) To obtain stable HeLa cell lines expressing the luciferase gene under the control of NF-κB, HeLa cells were transfected (using lipofectamine plus GIBCO) with the STM-Pvu I linearized vector, and selected for 20 days with G418 (800 μg/ml). After selection, the resistant HeLa cell pool was controlled (in quadruplicate samples) for luciferase activity after stimulation with TNFα, IL-1 and TPA.

In data set [5] the test system is HSF. The experiment in a line: HSF activation, luciferase reporter controlled by the human hsp70 promoter in HeLa cell clone 13B. Format: cell-based. The settings on record: read-out: HSF AC200/μM. As for the experimental part: (§3) HeLa cell clone 13B, stably transfected with a luciferase reporter plasmid controlled by the human hsp70 promoter, and HeLa κB-transformed cells, stably transfected with a luciferase reporter plasmid controlled by a synthetic NF-κB-STM construct, were maintained in DMEM medium supplemented with 10% FBS, L-glutamine (2 mM) and G418 (250 μg/ml) at 37° C. in a 5% CO2 humidified atmosphere.
(§4) Cells were seeded at a density of 4×10^4 cells/well in 96-well plates. After 18–20 h, the medium was removed and cells were treated for 8 h with the test compounds (100 μl) at the appropriate dilutions in serum-free medium. For the NF-κB-dependent reporter gene assay, cells were stimulated with TPA (25 ng/ml) 2 h after exposure to the compounds.
(§5) After incubation, the medium was removed and cells were lysed in 10 μl of lysis buffer. The luciferase activity was determined by adding 100 μl of substrate and measuring the release of light using a Victor 1420 microplate reader (Wallac, Finland).
(§6) The AC200/μM for HSF is the concentration at which the tested compound doubled the HSF activity in this assay. The IC50/μM for NF-κB is the concentration at which the tested compound halved the NF-κB activity in this assay. […] The LC50/μM is the concentration at which the tested compound killed half the cells in each assay. […] (n.d. means not done)
(Reporter assays use an easily measured gene product as a stand-in for the process of interest.)

The subject of data set [6] is NF-κB. The experiment in a line: NF-κB-dependent luciferase reporter gene assay in HeLa κB-transformed cells stimulated with TPA. Format: cell-based, human. The method, then: as §3, §4, §5, §1, §2, §6
For data set [7], the system named is HeLa cells. The experiment in a line: in vitro. It counts as cell-based. The settings on record: human, 8 h. As for the experimental part:
(§7) HeLa cells were plated in 96-well microtiter plates in 100 μl culture medium (4×10^4/well). After 20 hours, the cells were exposed to the test compounds at different dilutions and incubated for the next 8 h at 37° C. in a 5% CO2 humidified atmosphere. After 6 h incubation, the Alamar Blue was added in an amount equal to 10% of the culture volume (10 μl). Two hours after the addition of the Alamar Blue, the fluorescence was measured using a Victor 1420 microplate reader.

Data set [8] can be described thus: in vitro. The settings on record: human. The method, then: (§8) This assay was carried out on HeLa cells using a technique analogous to that described below in Example 36(b) for Monkey Kidney 37RC cells.
as §6
(§9) Cell viability was determined using the Neutral Red assay. 37RC cells were seeded at density of 6×10^4 cells/well in 24-well plates and incubated for 24 h. Confluent 37RC monolayers were treated with the test compounds at different dilutions for 24 h at 37° C. After incubation, the medium was removed and the cells were incubated with RPMI medium containing 40 μg/ml Neutral Red dye (500 μl/well). After 2 h at 37° C., the monolayers were washed with phosphate-buffered saline (PBS) and then with a solution containing 1% CaCl2 and 0.5% formaldehyde. After washing, a solution containing 1% acetic acid/50% ethanol was added to the monolayers (250 μl/well). After 10 min at room temperature, the absorbance was determined with a microplate reader (Victor 1420, Wallac) at 540 nm.

The subject of data set [9] is Sendai virus. The experiment in a line: Replication of Sendai virus in 37RC cells, virus yield by haemagglutinin titration. Format: cell-based. Conditions: Respirovirus muris, read-out: ID50/μM. As for the experimental part:
Monkey kidney 37RC cells were grown at 37° C. in RPMI medium supplemented with 5% foetal bovine serum (FBS), L-glutarine (2 mM) and antibiotics. Sendai virus was grown in the allantoic cavity of 10-day-old embryonated eggs. Viral titre was expressed in haemagglutinating units (HAU) per ml; haemagglutinin titration was done according to standard procedures, as described in C. Amici et al. (J. Virol. 68: 6890–6899, 1994). […] Confluent 37RC monolayers were infected with Sendai Virus (5 HAU/ml) for 1 h at 37° C. After 1 hour incubation, viral inoculum was removed and cells were treated with the test compounds at different concentrations. Virus yields were determined 24 h post infection by haemagglutinin titration. Mock-infected cells were treated identically and processed for cytotoxicity assay (Neutral Red assay) at the same time (see below). The results were expressed as HAU/ml (each point represents the mean of duplicate samples).

Data set [10] concerns Monkey kidney 37RC cells. Format: cell-based. The settings on record: concentration 100% toxic to uninfected 37RC cells, visually by microscopy.
Data set [11] can be described thus: in vitro. Format: cell-based. Conditions: monkey, 50% lethal dose/concentration, neutral red assay, 37RC cells, read-out: LC50/μM. As for the experimental part: Cell viability was determined using the Neutral Red assay.
The subject of data set [12] is HeLa cells. Put plainly: in vitro. Conditions: read-out: Toxicity Neutral Red LC50/μM; HeLa cells; concentration that killed half the cells. The method, then: as §8, §6, §9
Data set [13] can be described thus: in vitro. Format: cell-based. Conditions: human. The method, then: as §7
Where [14] appears, read: Homo sapiens, concentration at which the compound doubled HSF activity, HeLa clone 13B, 8 h treatment.
[15] abbreviates: Homo sapiens, concentration that halved NF-κB activity, HeLa reporter cells, TPA 25 ng/ml, 8 h treatment.

Where two headings read alike, the source gives them in different places. A value given as a limit tells only on which side of the number the result lay.

Turning to `CCCCC[C@H](O)/C=C/[C@H]1[C@H](O)CC(=O)[C@@H]1CCCCCCC(=O)O` [Prostaglandin E1], the “effect on blood pressure” value in data set [1] is on record as “dose-dependant falls in blood pressure”.
Take `O=C1C=CCC1` [cyclopent-2-en-1-one]: the “concentration able to activate HSF1 and trigger synthesis of HSP70” value in [2] was 125 to 500 µM. Besides, the “block of NF-κB activation by chemical or physiological inducers” value in [3] was “able to block NF-κB activation”.
Turning to TNFα, the luciferase activity in data set [4] came to 6111±1231.
With `CC(C)(C)OC(=O)NC1C=CC(=O)/C1=C/c1ccccc1` (stereo not shown) [CTC-248, ((E)-5-Benzylidene-4-oxo-cyclopent-2-enyl)-carbamic acid tert-butyl ester], the EC (2-fold HSF activity) in data set [5] (setting [14]) is 1.8 µM. For the same compound, the IC50 was determined as 4 µM in data set [6] (setting [15]) and 0.6 µM in data set [9] (24 h). In data set [7], this compound displayed a CC50 greater than 800 µM. The CC50 at 24 h in data set [8] and in [11] was 33 µM each time. This compound had a TD100/μM in data set [10] of 10 µM.
Turning to “[(1R,2S)-2-(Naphthalen-2-ylsulfanyl)-4-oxocyclopentyl]-carbamic acid methyl ester; compound with benzene [CTM-237]”, the EC (2-fold HSF activity) in data set [5] stood at 28 µM. In [6], the IC50 was 9 µM. The CC50 in data set [12] worked out at 183 µM.
`CCCCC[C@H](O)/C=C/[C@H]1C=CC(=O)[C@@H]1CCCCCCC(=O)O` [Prostaglandin A1]: in data set [1], the “effect on blood pressure” value is “dose-dependant falls in blood pressure”.
Take `CC(C)/C=C1/C(=O)C=CC1NC(=O)c1ccccc1` (stereo not shown) [CTC-172, N-(5-iso-Butylidene-4-oxocyclopent-2-enyl)-benzamide]: in data set [5] (setting [14]), the EC (2-fold HSF activity) was less than 6.2 µM. Further, the IC50 is less than 6.2 µM in data set [6] (setting [15]) and 0.3 µM in [9] (50% inhibitory dose/concentration at 24 hours, Sendai virus in 37RC cells). In addition, the CC50 at 8 h in [13] is 50 µM. The compound further gave a TD100/μM in [10] of 10 µM. In addition, the CC50 at 24 h in data set [11] stood at 4 µM.
On to “[(1R,2R)-2-(Naphthalen-2-ylsulfanyl)-4-oxocyclopentyl]-carbamic acid methyl ester; compound with benzene [CTM-238]”, for which the EC (2-fold HSF activity) in [5] is listed as 26 µM. Besides, the IC50 in data set [6] is 17 µM. Also, in [12], the CC50 was found to be 113 µM.
The compound `CCCCCCCCCCCCCC(=O)O[C@@H]1[C@@H](C)[C@@]2(O)[C@@H](C=C(CO)C[C@]3(O)C(=O)C(C)=C[C@@H]23)[C@H]2C(C)(C)[C@]12OC(C)=O` [TPA] yielded a luciferase activity in data set [4] of 7181±444.
Turning to `COC(=O)[C@H](CS[C@@H]1CC(=O)C[C@H]1NC(=O)Oc1ccccc1)NC(=O)OC(C)(C)C` [CTM-236, (R)-2-tert-Butoxycarbonylamino-3-((1R,2R)-4-oxo-2-phenoxy-carbonyl-amino-cyclopentyl-sulfanyl)-propionic acid methyl ester], the EC (2-fold HSF activity) in [5] (concentration at which the compound doubled HSF activity, HeLa clone 13B, 8 h treatment) worked out at 13 µM. The compound also gave an IC50 in [6] (concentration that halved NF-κB activity, HeLa reporter cells, TPA 25 ng/ml, 8 h treatment) of 10 µM. The CC50 in data set [12] is 76 µM.

These data come from US7183440B2, “Pharmaceutically useful compounds” (priority 2005, dated 2007).
